Test system: 186277-243-T-J2-PDC complex spheroid viability
Test: Anticancer human tumor 186277-243-T-J2-PDC patient-derived colon adenocarcinoma cell line growth inhibition [POLQ]
Details: for IC50: curve of first compound; for viability, T/C: stronger effect = lower value
Procedure, shortened: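 PDC + HUVEC + MSC complex spheroids; POLQ inhibitors ± partner drugs; top conc. at/near clinical Cmax, else 10 microM (SN-38 1 microM), half-log dilutions; 37 degrees C, 5% CO2.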

[1] = second compound 0.0316 µM, first compound 0.0316 µM
[2] = second compound 0.0316 µM, first compound 0.1 µM
[3] = second compound 0.0316 µM, first compound 0.316 µM
[4] = second compound 0.0316 µM, first compound 1 µM
[5] = second compound 0.0316 µM, first compound 3.16 µM
[6] = second compound 0.0316 µM, first compound 10 µM
[7] = second compound 0.1 µM, first compound 0.0316 µM
[8] = second compound 0.1 µM, first compound 0.1 µM
[9] = second compound 0.1 µM, first compound 0.316 µM
[10] = second compound 0.1 µM, first compound 1 µM
[11] = second compound 0.1 µM, first compound 3.16 µM
[12] = second compound 0.1 µM, first compound 10 µM
[13] = second compound 0.316 µM, first compound 0.0316 µM
[14] = second compound 0.316 µM, first compound 0.1 µM
[15] = second compound 0.316 µM, first compound 0.316 µM
[16] = second compound 0.316 µM, first compound 1 µM
[17] = second compound 0.316 µM, first compound 3.16 µM
[18] = second compound 0.316 µM, first compound 10 µM
[19] = second compound 1 µM, first compound 0.0316 µM
[20] = second compound 1 µM, first compound 0.1 µM
[21] = second compound 1 µM, first compound 0.316 µM
[22] = second compound 1 µM, first compound 1 µM
[23] = second compound 1 µM, first compound 3.16 µM
[24] = second compound 1 µM, first compound 10 µM
[25] = second compound 3.16 µM, first compound 0.0316 µM
[26] = second compound 3.16 µM, first compound 0.1 µM
[27] = second compound 3.16 µM, first compound 0.316 µM
[28] = second compound 3.16 µM, first compound 1 µM
[29] = second compound 3.16 µM, first compound 3.16 µM
[30] = second compound 3.16 µM, first compound 10 µM
[31] = second compound 10 µM, first compound 0.0316 µM
[32] = second compound 10 µM, first compound 0.1 µM
[33] = second compound 10 µM, first compound 0.316 µM
[34] = second compound 10 µM, first compound 1 µM
[35] = second compound 10 µM, first compound 3.16 µM
[36] = second compound 10 µM, first compound 10 µM
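Also: spheroids exposed to compounds for seven days.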
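For viability, T/C in this document: 100% = DMSO vehicle control viability.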

Which IC50 (second compound 0.0316 µM) does the source give for `CC1COCCN1c1cc(C2(S(C)(=N)=O)CC2)nc(-c2ccnc3[nH]ccc23)n1` (centres undefined) + COC1C(OC(N)=O)C(O)C(Oc2ccc3c(O)c(NC(=O)c4ccc(O)c(CC=C(C)C)c4)c(=O)oc3c2C)OC1(C)C here?
Its IC50 is 793 nM.

And the IC50 (second compound 0.1 µM)?
The IC50 was 817 nM.

What about the IC50 (second compound 0.316 µM) of the same compound?
The IC50 was 798 nM.

And the IC50 (second compound 1 µM)?
The IC50 was 822 nM.

What about the IC50 (second compound 3.16 µM) of the same compound?
The IC50 was 788 nM.

And the IC50 (second compound 10 µM)?
The IC50 was 776 nM.

What about the viability, T/C [1] of the same compound?
The viability, T/C was 111%.

What about the viability, T/C [2] of the same compound?
The viability, T/C was 96.6%.

And the viability, T/C [3]?
The viability, T/C was 117%.

And the viability, T/C [4]?
Its viability, T/C is 35.3%.

What about the viability, T/C [5] of the same compound?
The viability, T/C was 5.81%.

And the viability, T/C [6]?
The viability, T/C was 4.54%.

And the viability, T/C [7]?
Its viability, T/C is 98%.

And the viability, T/C [8]?
The viability, T/C was 107%.

And the viability, T/C [9]?
The viability, T/C was 111%.

What about the viability, T/C [10] of the same compound?
Its viability, T/C is 38.1%.

What about the viability, T/C [11] of the same compound?
The viability, T/C was 6.12%.

And the viability, T/C [12]?
The viability, T/C was 4.78%.

And the viability, T/C [13]?
The viability, T/C was 97.5%.

And the viability, T/C [14]?
The viability, T/C was 111%.

What about the viability, T/C [15] of the same compound?
Its viability, T/C is 104%.

What about the viability, T/C [16] of the same compound?
The viability, T/C was 36.9%.

And the viability, T/C [17]?
The viability, T/C was 6.74%.

And the viability, T/C [18]?
Its viability, T/C is 4.71%.

And the viability, T/C [19]?
Its viability, T/C is 95.8%.

And the viability, T/C [20]?
Its viability, T/C is 98.2%.

What about the viability, T/C [21] of the same compound?
Its viability, T/C is 105%.

And the viability, T/C [22]?
Its viability, T/C is 39.8%.

And the viability, T/C [23]?
Its viability, T/C is 6.98%.

And the viability, T/C [24]?
The viability, T/C was 4.23%.

And the viability, T/C [25]?
Its viability, T/C is 94.8%.

What about the viability, T/C [26] of the same compound?
The viability, T/C was 100%.

What about the viability, T/C [27] of the same compound?
Its viability, T/C is 104%.

And the viability, T/C [28]?
The viability, T/C was 37.1%.

And the viability, T/C [29]?
The viability, T/C was 6.45%.

And the viability, T/C [30]?
Its viability, T/C is 5.04%.

What about the viability, T/C [31] of the same compound?
Its viability, T/C is 108%.

What about the viability, T/C [32] of the same compound?
The viability, T/C was 104%.

And the viability, T/C [33]?
Its viability, T/C is 106%.

What about the viability, T/C [34] of the same compound?
The viability, T/C was 34.1%.

And the viability, T/C [35]?
Its viability, T/C is 7.67%.

And the viability, T/C [36]?
The viability, T/C was 5.44%.

What does the source list for `COc1cc2cc(C(=O)CCC(=O)O)sc2cc1OC` + Cc1cccc(N(C)C(=O)C2C(O)CCN2c2nc(C)cc(C(F)(F)F)c2C#N)c1?
IC50 (second compound 0.0316 µM): > 10000 nM; IC50 (second compound 0.1 µM): > 10000 nM; IC50 (second compound 0.316 µM): > 10000 nM; IC50 (second compound 1 µM): > 10000 nM; IC50 (second compound 3.16 µM): > 10000 nM; IC50 (second compound 10 µM): > 10000 nM; viability, T/C [1]: 97.6%; viability, T/C [2]: 87.7%; viability, T/C [3]: 95%; viability, T/C [4]: 82.1%; viability, T/C [5]: 111%; viability, T/C [6]: 91.6%; viability, T/C [7]: 88.8%; viability, T/C [8]: 89.1%; viability, T/C [9]: 90.5%; viability, T/C [10]: 99.7%; viability, T/C [11]: 105%; viability, T/C [12]: 99.2%; viability, T/C [13]: 101%; viability, T/C [14]: 91.7%; viability, T/C [15]: 96.6%; viability, T/C [16]: 98.1%; viability, T/C [17]: 93.5%; viability, T/C [18]: 103%; viability, T/C [19]: 93.2%; viability, T/C [20]: 93.5%; viability, T/C [21]: 102%; viability, T/C [22]: 109%; viability, T/C [23]: 101%; viability, T/C [24]: 113%; viability, T/C [25]: 106%; viability, T/C [26]: 112%; viability, T/C [27]: 92.4%; viability, T/C [28]: 99.4%; viability, T/C [29]: 118%; viability, T/C [30]: 91.7%; viability, T/C [31]: 107%; viability, T/C [32]: 109%; viability, T/C [33]: 112%; viability, T/C [34]: 101%; viability, T/C [35]: 93.9%; viability, T/C [36]: 84.4%

Source: PubChem BioAssay AID1963854 (Molecular Pharmacology Branch, DTP, NCI, 2024)
